Measured values: patent publication US11919901B2 (Syndax Pharmaceuticals, Inc., priority 2021, dated 2024)

Tests used:
hERG = hERG (Homo sapiens (Human), UniProt Q12809); assay: Patch clamp assay (hERG tail currents, whole-cell); assay type: cell-based; conditions: hERG transfected HEK 293 cells; for hERG % Remaining 30 μM: 30 μM compound; for hERG % Remaining 10 μM: 10 μM compound
Method: The 35 mm culture dishes upon which cells were seeded at a density allowing single cells to be recorded were placed on the dish holder of the microscope and continuously perfused (at approximately 1 mL/min) with the bath solution described in section 4.6. All solutions applied to cells including the pipette solution were maintained at room temperature (19° C. to 30° C.). After formation of a Gigaohm seal between the patch electrodes and individual hERG stably transfected HEK 293 cells (pipette resistance range: 2.0 MΩ2 to 7.0 MΩ; seal resistance range: >1GΩ) the cell membrane across the pipette tip was ruptured to assure electrical access to the cell interior (whole-cell patch-configuration). In case the quality of the seal was poor, the process of seal formation was repeated with a different cell and a new pipette. As soon as a stable seal could be established, hERG outward tail currents were measured upon depolarization of the cell membrane to +20 mV for 2s (activation of channels) from a holding potential of −80 mV and upon subsequent repolarization to −40 mV for 3 s. This voltage protocol (as shown below) was run at least 10 times at intervals of 10 s. If current density was judged to be too low for measurement, another cell was recorded.
During wash-in of the test item the voltage protocol indicated above was run continuously again at 10 s intervals until the steady-state level of block was reached.
The IC50 was determined by fitting the dose response curve with a 2-parameter logistic function (amax=100%).

Menin-MLL = Menin-MLL (Homo sapiens (Human), UniProt O00255); assay: Determination of binding constants (Ki) to Menin-MLL (HTRF); conditions: HTRF, 0.25 nM H-FL-Menin, 3.2 nM FITC-MLL-4-43, 24 hr incubation; for Ki: read-out: Menin-MLL Ki HTRF Assay: Ki
Menin-MLL, sequence (O00255 whole entry): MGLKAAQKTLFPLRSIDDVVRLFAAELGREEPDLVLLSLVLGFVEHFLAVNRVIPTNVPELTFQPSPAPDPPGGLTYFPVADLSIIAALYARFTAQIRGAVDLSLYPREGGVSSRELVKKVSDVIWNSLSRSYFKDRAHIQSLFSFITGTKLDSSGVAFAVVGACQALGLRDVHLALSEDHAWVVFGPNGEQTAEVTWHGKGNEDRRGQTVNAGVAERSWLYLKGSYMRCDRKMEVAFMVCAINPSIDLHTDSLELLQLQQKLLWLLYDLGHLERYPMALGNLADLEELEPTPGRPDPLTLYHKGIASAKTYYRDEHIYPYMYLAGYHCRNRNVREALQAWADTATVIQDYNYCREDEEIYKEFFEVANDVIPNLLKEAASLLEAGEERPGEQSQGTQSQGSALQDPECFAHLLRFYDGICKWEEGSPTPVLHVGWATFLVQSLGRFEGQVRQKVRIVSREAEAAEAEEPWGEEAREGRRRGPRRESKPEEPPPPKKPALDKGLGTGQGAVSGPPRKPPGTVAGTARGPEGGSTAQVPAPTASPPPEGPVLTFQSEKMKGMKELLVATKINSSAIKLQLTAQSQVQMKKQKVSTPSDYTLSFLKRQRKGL

hERG, sequence (Q12809 whole entry): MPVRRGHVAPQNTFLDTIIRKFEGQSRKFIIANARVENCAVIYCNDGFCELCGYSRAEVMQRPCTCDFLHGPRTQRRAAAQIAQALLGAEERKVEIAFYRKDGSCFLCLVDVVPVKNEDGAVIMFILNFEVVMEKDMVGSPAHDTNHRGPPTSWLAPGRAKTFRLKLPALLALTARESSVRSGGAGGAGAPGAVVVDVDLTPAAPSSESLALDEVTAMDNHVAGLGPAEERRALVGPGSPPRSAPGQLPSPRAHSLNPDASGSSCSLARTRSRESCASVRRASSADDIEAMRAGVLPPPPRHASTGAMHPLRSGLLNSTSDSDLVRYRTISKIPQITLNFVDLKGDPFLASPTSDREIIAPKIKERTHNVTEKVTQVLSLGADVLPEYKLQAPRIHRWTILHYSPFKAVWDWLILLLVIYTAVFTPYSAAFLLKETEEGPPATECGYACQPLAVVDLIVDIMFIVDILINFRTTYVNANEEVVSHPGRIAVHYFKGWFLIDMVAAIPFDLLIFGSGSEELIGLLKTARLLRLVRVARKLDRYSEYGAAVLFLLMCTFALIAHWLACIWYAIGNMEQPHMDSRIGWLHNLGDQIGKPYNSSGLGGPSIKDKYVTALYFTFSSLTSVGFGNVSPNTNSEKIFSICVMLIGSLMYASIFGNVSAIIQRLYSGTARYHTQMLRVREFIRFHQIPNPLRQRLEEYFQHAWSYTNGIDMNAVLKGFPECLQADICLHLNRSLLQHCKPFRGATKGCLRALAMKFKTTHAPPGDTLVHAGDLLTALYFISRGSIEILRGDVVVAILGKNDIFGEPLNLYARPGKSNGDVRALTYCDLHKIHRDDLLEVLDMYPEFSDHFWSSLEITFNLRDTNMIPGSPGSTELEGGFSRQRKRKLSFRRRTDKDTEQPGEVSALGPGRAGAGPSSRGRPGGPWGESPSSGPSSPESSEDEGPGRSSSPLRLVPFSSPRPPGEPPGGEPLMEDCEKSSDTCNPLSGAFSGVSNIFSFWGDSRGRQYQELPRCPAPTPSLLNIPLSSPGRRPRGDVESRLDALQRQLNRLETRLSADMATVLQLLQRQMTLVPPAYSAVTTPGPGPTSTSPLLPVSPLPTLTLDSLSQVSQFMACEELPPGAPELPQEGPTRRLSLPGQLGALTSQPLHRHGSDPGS

| Structure (SMILES) | hERG % Remaining 30 μM (hERG) | Ki (Menin-MLL) [nM] | hERG % Remaining 10 μM (hERG) | hERG % Remaining 1 μM (hERG; 1 μM compound) | hERG % Remaining 3 μM (hERG; 3 μM compound) | hERG % Remaining 100 μM (hERG; 100 μM compound) | IC50 (hERG) [nM] | EC50 (Menin-MLL) [nM] |
| --- | --- | --- | --- | --- | --- | --- | --- | --- |
| CC(C)N(C(=O)c1cc(F)ccc1Oc1cncnc1N1CC2(CCN(C[C@@H]3CC[C@@H](NS(=O)(=O)N(C)C(C)C)CO3)CC2)C1)C(C)C [Compound 89, 5-Fluoro-N,N-diisopropyl-2-((4-(7-(((2S,5R)-5-((N-isopropyl-N-methylsulfamoyl)amino)tetrahydro-2H-pyran-2-yl)methyl)-2,7-diazaspiro[3.5]nonan-2-yl)pyrimidin-5-yl)oxy)benzamide] | ++ (“++” means ≥33% and <66%) | < 1 | – | – | – | – | – | – |
| CC(C)N(C(=O)c1cc(F)ccc1Oc1cncnc1N1CC2(CCN(C[C@@H]3CC[C@@H](NS(N)(=O)=O)CO3)CC2)C1)C(C)C [Compound 90, 5-Fluoro-N,N-diisopropyl-2-((4-(7-(((2S,5R)-5-(sulfamoylamino)tetrahydro-2H-pyran-2-yl)methyl)-2,7-diazaspiro[3.5]nonan-2-yl)pyrimidin-5-yl)oxy)benzamide] | +++ (“+++” means ≥66%) | < 1 | +++ (“+++” means ≥66%) | – | – | – | – | – |
| Cc1nc(S(=O)(=O)N[C@@H]2CC[C@@H](CN3CCC4(CC3)CN(c3ncncc3Oc3ccc(F)cc3C(=O)N(C(C)C)C(C)C)C4)OC2)co1 [Compound 91, 5-Fluoro-N,N-diisopropyl-2-((4-(7-(((2S,5R)-5-((2-methyloxazole)-4-sulfonamido)tetrahydro-2H-pyran-2-yl)methyl)-2,7-diazaspiro[3.5]nonan-2-yl)pyrimidin-5-yl)oxy)benzamide] | ++ (“++” means ≥33% and <66%) | < 1 | – | – | – | – | – | – |
| CC(C)N(C(=O)c1cc(F)ccc1Oc1cncnc1N1CC2(CCN(C[C@@H]3CC[C@@H](NS(=O)(=O)N(C)C)CO3)CC2)C1)C1CC1 [Compound 93, N-Cyclopropyl-2-((4-(7-(((2S,5R)-5-((N,N-dimethylsulfamoyl)amino)tetrahydro-2H-pyran-2-yl)methyl)-2,7-diazaspiro[3.5]nonan-2-yl)pyrimidin-5-yl)oxy)-5-fluoro-N-isopropylbenzamide] | ++ (“++” means ≥33% and <66%) | < 1 | +++ (“+++” means ≥66%) | +++ (“+++” means ≥66%) | +++ (“+++” means ≥66%) | + (“+” means <33%) | ≥ 50000 | < 50 |
| CC(C)N(CC(F)F)C(=O)c1cc(F)ccc1Oc1cncnc1N1CC2(CCN(C[C@@H]3CC[C@@H](NS(=O)(=O)N4CCOCC4)CO3)CC2)C1 [Compound 94, N-(2,2-Difluoroethyl)-5-fluoro-N-isopropyl-2-((4-(7-(((2S,5R)-5-(morpholine-4-sulfonamido)tetrahydro-2H-pyran-2-yl)methyl)-2,7-diazaspiro[3.5]nonan-2-yl)pyrimidin-5-yl)oxy)benzamide] | ++ (“++” means ≥33% and <66%) | < 1 | +++ (“+++” means ≥66%) | – | – | – | – | < 50 |
| CC(C)N(CC(F)F)C(=O)c1cc(F)ccc1Oc1cncnc1N1CC2(CCN(C[C@@H]3CC[C@@H](NS(=O)(=O)N(C)C)CO3)CC2)C1 [Compound 95, N-(2,2-Difluoroethyl)-2-((4-(7-(((2S,5R)-5-((N,N-dimethylsulfamoyl)amino)tetrahydro-2H-pyran-2-yl)methyl)-2,7-diazaspiro[3.5]nonan-2-yl)pyrimidin-5-yl)oxy)-5-fluoro-N-isopropylbenzamide] | ++ (“++” means ≥33% and <66%) | < 1 | +++ (“+++” means ≥66%) | – | – | – | < 25000 | < 50 |
| CCN(CC)S(=O)(=O)N[C@@H]1CC[C@@H](CN2CCC3(CC2)CN(c2ncncc2Oc2ccc(F)cc2C(=O)N(CC(F)F)C(C)C)C3)OC1 [Compound 97, 2-((4-(7-(((2S,5R)-5-((N,N-Diethylsulfamoyl)amino)tetrahydro-2H-pyran-2-yl)methyl)-2,7-diazaspiro[3.5]nonan-2-yl)pyrimidin-5-yl)oxy)-N-(2,2-difluoroethyl)-5-fluoro-N-isopropylbenzamide] | + (“+” means <33%) | < 1 | ++ (“++” means ≥33% and <66%) | – | – | – | – | < 50 |
| CC(C)N(CC(F)F)C(=O)c1cc(F)ccc1Oc1cncnc1N1CC2(CCN(C[C@@H]3CC[C@@H](NS(=O)(=O)N4CCC4)CO3)CC2)C1 [Compound 99, 2-((4-(7-(((2S,5R)-5-(Azetidine-1-sulfonamido)tetrahydro-2H-pyran-2-yl)methyl)-2,7-diazaspiro[3.5]nonan-2-yl)pyrimidin-5-yl)oxy)-N-(2,2-difluoroethyl)-5-fluoro-N-isopropylbenzamide] | ++ (“++” means ≥33% and <66%) | < 1 | +++ (“+++” means ≥66%) | – | – | – | – | – |
| CC(C)N(CC(F)F)C(=O)c1cc(F)ccc1Oc1cncnc1N1CC2(CCN(C[C@@H]3CC[C@@H](NS(=O)(=O)c4cnn(C)c4)CO3)CC2)C1 [Compound 100, N-(2,2-Difluoroethyl)-5-fluoro-N-isopropyl-2-((4-(7-(((2S,5R)-5-((1-methyl-1H-pyrazole)-4-sulfonamido)tetrahydro-2H-pyran-2-yl)methyl)-2,7-diazaspiro[3.5]nonan-2-yl)pyrimidin-5-yl)oxy)benzamide] | +++ (“+++” means ≥66%) | < 1 | +++ (“+++” means ≥66%) | – | – | – | ≥ 50000 | – |
| CC(C)N(CC(F)F)C(=O)c1cc(F)ccc1Oc1cncnc1N1CC2(CCN(C[C@@H]3CC[C@@H](NS(=O)(=O)N(C)C(C)C)CO3)CC2)C1 [Compound 101, N-(2,2-Difluoroethyl)-5-fluoro-N-isopropyl-2-((4-(7-(((2S,5R)-5-((N-isopropyl-N-methylsulfamoyl)amino)tetrahydro-2H-pyran-2-yl)methyl)-2,7-diazaspiro[3.5]nonan-2-yl)pyrimidin-5-yl)oxy)benzamide] | + (“+” means <33%) | < 1 | – | – | – | – | – | – |
| CNS(=O)(=O)N[C@@H]1CC[C@@H](CN2CCC3(CC2)CN(c2ncncc2Oc2ccc(F)cc2C(=O)N(CC(F)F)C(C)C)C3)OC1 [Compound 102, N-(2,2-Difluoroethyl)-5-fluoro-N-isopropyl-2-((4-(7-(((2S,5R)-5-((N-methylsulfamoyl)amino)tetrahydro-2H-pyran-2-yl)methyl)-2,7-diazaspiro[3.5]nonan-2-yl)pyrimidin-5-yl)oxy)benzamide] | +++ (“+++” means ≥66%) | < 1 | – | – | – | – | ≥ 50000 | – |
| CC(C)N(CC(F)F)C(=O)c1cc(F)ccc1Oc1cncnc1N1CC2(CCN(C[C@@H]3CC[C@@H](NS(=O)(=O)c4ccn(C)n4)CO3)CC2)C1 [Compound 103, N-(2,2-Difluoroethyl)-5-fluoro-N-isopropyl-2-((4-(7-(((2S,5R)-5-((1-methyl-1H-pyrazole)-3-sulfonamido)tetrahydro-2H-pyran-2-yl)methyl)-2,7-diazaspiro[3.5]nonan-2-yl)pyrimidin-5-yl)oxy)benzamide] | +++ (“+++” means ≥66%) | < 1 | – | – | – | – | – | – |
| Cc1c(S(=O)(=O)N[C@@H]2CC[C@@H](CN3CCC4(CC3)CN(c3ncncc3Oc3ccc(F)cc3C(=O)N(CC(F)F)C(C)C)C4)OC2)cnn1C [Compound 104, N-(2,2-Difluoroethyl)-2-((4-(7-(((2S,5R)-5-((1,5-dimethyl-1H-pyrazole)-4-sulfonamido)tetrahydro-2H-pyran-2-yl)methyl)-2,7-diazaspiro[3.5]nonan-2-yl)pyrimidin-5-yl)oxy)-5-fluoro-N-isopropylbenzamide] | +++ (“+++” means ≥66%) | < 1 | – | – | – | – | – | – |
